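Dose response: 5 concentrations. Exposure: 48 h. Format: 96-well plates. Endpoint: linear interpolation; highest concentration if not reached. GI50 = concentration required for 50% inhibition of growth.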 Active and inactive are the calls of the source. Rule as the data show it: active = GI50 up to about 1.1 µM and inactive = higher.
Tests used:
Assay in all cases: growth of human tumour cells (NCI), 48 h
UACC-257 = test system: UACC-257
M14 = test system: M14
NCI-H522 = test system: NCI-H522
SN12C = test system: SN12C
SF-539 = test system: SF-539
SW-620 = test system: SW-620
SF-295 = test system: SF-295
U-251 = test system: U-251
HCT-116 = test system: HCT-116
OVCAR-5 = test system: OVCAR-5
EKVX = test system: EKVX
SNB-19 = test system: SNB-19
K562 = test system: K562
MOLT-4 = test system: MOLT-4
Malme-3M = test system: Malme-3M
NCI-H23 = test system: NCI-H23
UO-31 = test system: UO-31
CCRF-CEM = test system: CCRF-CEM

Measured: GI50

Cc1cccc(C)c1N1C(=O)C(=O)C(c2nc3ccccc3s2)/C(=N\N)C1=O (stereo not given)
inactive: UACC-257 > 100 µM | M14 > 100 µM | NCI-H522 39.4 µM | SN12C 78.7 µM | SF-539 > 100 µM | SW-620 > 100 µM | SF-295 > 100 µM | U-251 > 100 µM | HCT-116 > 100 µM | OVCAR-5 > 100 µM | EKVX 47 µM | SNB-19 > 100 µM | K562 31.8 µM | MOLT-4 30.3 µM | Malme-3M > 100 µM | NCI-H23 > 100 µM | UO-31 > 100 µM

CN(C)CCC[N+]1=Nc2cccc3cccc(c23)N1
inactive: UACC-257 48.5 µM | M14 21.1 µM | NCI-H522 38 µM | SN12C 85.1 µM | CCRF-CEM 29.9 µM | SF-539 99.5 µM | SW-620 10.4 µM | SF-295 > 100 µM | U-251 60 µM | HCT-116 44.6 µM | OVCAR-5 > 100 µM | EKVX > 100 µM | SNB-19 > 100 µM | K562 31.8 µM | MOLT-4 24.4 µM | Malme-3M > 100 µM | NCI-H23 > 100 µM | UO-31 96.4 µM

CCOC(=O)C1N(S(=O)(=O)c2ccc(C)cc2)CCC12c1ccccc1NC2c1ccc(OC)c(OC)c1 (stereo not given)
inactive: UACC-257 > 100 µM | M14 > 100 µM | NCI-H522 > 100 µM | SN12C > 100 µM | CCRF-CEM 80.5 µM | SF-539 > 100 µM | SW-620 27.4 µM | SF-295 > 100 µM | U-251 > 100 µM | HCT-116 60.7 µM | OVCAR-5 > 100 µM | EKVX > 100 µM | SNB-19 > 100 µM | K562 34.2 µM | Malme-3M > 100 µM | NCI-H23 > 100 µM | UO-31 > 100 µM

CC(C)(C)C1=CC(=C2C(=O)C(=O)c3ccccc3C2=O)C=C(C(C)(C)C)C1=O
inactive: UACC-257 29.4 µM | M14 37.5 µM | NCI-H522 18.7 µM | SN12C 72.9 µM | CCRF-CEM 36.5 µM | SF-539 82.2 µM | SW-620 36 µM | SF-295 > 100 µM | U-251 > 100 µM | HCT-116 19.2 µM | OVCAR-5 > 100 µM | EKVX 35.5 µM | SNB-19 > 100 µM | K562 32.1 µM | Malme-3M 26.5 µM | NCI-H23 32.7 µM | UO-31 43.7 µM

Cc1nc2cc(N)c(F)cc2[nH]1
inactive: UACC-257 > 100 µM | NCI-H522 > 100 µM | SN12C > 100 µM | CCRF-CEM > 100 µM | SF-539 > 100 µM | SW-620 > 100 µM | SF-295 > 100 µM | U-251 > 100 µM | OVCAR-5 > 100 µM | EKVX > 100 µM | SNB-19 > 100 µM | K562 > 100 µM | MOLT-4 > 100 µM | Malme-3M > 100 µM | NCI-H23 > 100 µM | UO-31 > 100 µM

CCCC(=O)C(CC)/C(CCC(=O)N(Cc1ccccc1)Cc1ccccc1)=N/NC(=O)C[N+](C)(C)C (stereo not given)
inactive: UACC-257 > 100 µM | M14 > 100 µM | NCI-H522 > 100 µM | SN12C > 100 µM | CCRF-CEM > 100 µM | SF-539 > 100 µM | SW-620 > 100 µM | SF-295 > 100 µM | U-251 > 100 µM | HCT-116 > 100 µM | OVCAR-5 > 100 µM | EKVX > 100 µM | SNB-19 > 100 µM | K562 > 100 µM | MOLT-4 > 100 µM | Malme-3M > 100 µM | NCI-H23 > 100 µM | UO-31 > 100 µM

CCOC(=O)C(OCC1CC=CCC1)Sc1ccccc1 (stereo not given)
inactive: UACC-257 > 100 µM | M14 > 100 µM | NCI-H522 > 100 µM | SN12C > 100 µM | CCRF-CEM > 100 µM | SF-539 > 100 µM | SW-620 > 100 µM | SF-295 > 100 µM | U-251 > 100 µM | HCT-116 > 100 µM | OVCAR-5 > 100 µM | EKVX > 100 µM | SNB-19 > 100 µM | K562 > 100 µM | Malme-3M > 100 µM | NCI-H23 > 100 µM | UO-31 > 100 µM

C#Cc1ccccc1N1C(=O)C=CC1=O
inactive: UACC-257 > 100 µM | M14 > 100 µM | NCI-H522 > 100 µM | SN12C > 100 µM | CCRF-CEM > 100 µM | SW-620 > 100 µM | SF-295 > 100 µM | U-251 > 100 µM | HCT-116 > 100 µM | OVCAR-5 > 100 µM | EKVX > 100 µM | SNB-19 > 100 µM | K562 > 100 µM | MOLT-4 > 100 µM | Malme-3M > 100 µM | NCI-H23 > 100 µM | UO-31 > 100 µM

O=C(Nc1nc2ncn(CCO)c2c(=S)[nH]1)c1ccccc1
inactive: UACC-257 > 100 µM | M14 > 100 µM | NCI-H522 > 100 µM | SN12C > 100 µM | CCRF-CEM > 100 µM | SF-539 > 100 µM | SW-620 > 100 µM | SF-295 > 100 µM | U-251 > 100 µM | HCT-116 > 100 µM | OVCAR-5 > 100 µM | EKVX > 100 µM | SNB-19 > 100 µM | K562 > 100 µM | Malme-3M > 100 µM | UO-31 > 100 µM

C1OC1CN1CCN(CC2CO2)CC1 (stereo not given)
inactive: UACC-257 > 100 µM | M14 54.6 µM | NCI-H522 > 100 µM | SN12C 32.1 µM | CCRF-CEM 2.49 µM | SF-539 37.4 µM | SW-620 > 100 µM | SF-295 42 µM | U-251 45.4 µM | HCT-116 72.8 µM | OVCAR-5 > 100 µM | EKVX > 100 µM | SNB-19 > 100 µM | K562 52.5 µM | MOLT-4 3.28 µM | Malme-3M > 100 µM | NCI-H23 22.1 µM | UO-31 97.5 µM

CC(C)NC(C)C(C)c1ccccc1 (stereo not given)
inactive: UACC-257 > 100 µM | M14 > 100 µM | NCI-H522 > 100 µM | SN12C > 100 µM | CCRF-CEM > 100 µM | SF-539 > 100 µM | SW-620 > 100 µM | SF-295 > 100 µM | U-251 > 100 µM | HCT-116 > 100 µM | EKVX > 100 µM | SNB-19 > 100 µM | K562 > 100 µM | MOLT-4 > 100 µM | Malme-3M > 100 µM | NCI-H23 > 100 µM | UO-31 > 100 µM

O=C1C=C2CCCC2C(C(=O)O)(C(=O)O)C1 (stereo not given)
inactive: UACC-257 > 100 µM | M14 > 100 µM | NCI-H522 > 100 µM | SN12C > 100 µM | CCRF-CEM > 100 µM | SF-539 > 100 µM | SW-620 > 100 µM | SF-295 > 100 µM | U-251 > 100 µM | HCT-116 > 100 µM | EKVX > 100 µM | SNB-19 > 100 µM | K562 > 100 µM | MOLT-4 > 100 µM | Malme-3M > 100 µM | NCI-H23 > 100 µM | UO-31 > 100 µM

Reference: ChEMBL document CHEMBL1201862, “PubChem BioAssay data set” (2004)
